Laboratory results as given in patent US9358239B2, “NiSOD-like compound and its derivatives for suppressing abnormal protein aggregation, recovering cell viability, increasing mature neuron number and neurite outgrowth length and protecting dopaminergic cells by reducing oxidative stress or reactive oxygen species in brain tissues” (National Taiwan Normal University, priority 2012, dated 2016).
Each block holds one compound with its values, some of them ahead of it.

Key:
ATXN3/Q75 aggregation = assay: ATXN3/Q75-GFP aggregation, high-content analysis in Flp-In 293 cells; type: cell-based, human; conditions: at 100 nM
Text: For therapies toward the polyQ diseases, we aimed to screen compounds potentially inhibiting polyQ aggregation. As removal of the N-terminal ATXN3 was required for ATXN3 aggregation, GFP-tagged ATXN3/Q14-75 C-terminal fragment was cloned to establish Flp-In 293 cells with inducible ATXN3/Q14-75-GFP expression. Refer to FIG. 2. The GFP antibody detected 40˜57 kDa ATXN3/Q14-75-GFP proteins in doxycycline (+Dox) induced ATXN3 cells. Refer to FIGS. 3A and 3B. While the expressed ATXN3/Q14 was primarily diffused, the expressed ATXN3/Q75-GFP formed aggregates. For high content aggregation analysis, these ATXN3/Q75 cells were seeded onto 96-well plate, treated with tested compounds WCt003, WCt006 and WCt021 for 8 hours, and doxycycline was added to induce ATXN3/Q75-GFP expression for 6 days. Oxaliplatin (5 μM, Sigma) was added for aggregate accumulation through inhibition of DNA synthesis. Then cells were stained with Hochest 33342 (0.1 μg/ml, Sigma) and aggregation percentage was assessed by high-content analysis (HCA) system, with excitation/emission wavelengths at 482/536 (GFP).
Refer to FIG. 4. Cells expressing ATXN3/Q75 were examined with tested compounds WCt003, WCt006 and WCt021. […] WCt003 and WCt006 reduced the ATXN3/Q75 aggregation to 80% to 84% at 10 nM and 100 nM, and WCt021 reduced the ATXN3/Q75 aggregation to 80% to 84% at 1 nM to 100 nM. […]

[1] = DPPH free radical scavenging assay; type: biochemical; conditions: absorbance at 517 nm
Text: For DPPH (1,1-diphenyl-2-picryl hydrazyl) scavenging activity, the odd electron in the stable DPPH free radical gives a strong absorption maximum at 517 nm and is purple in color. The DPPH assay measured scavenging ability of the antioxidants towards the stable radical. The free radical DPPH was reduced when it reacted with antioxidants and results in decrease in absorbance at 517 nm. The degree of discoloration indicated the scavenging potential of the antioxidant compounds. Refer to FIG. 7.

[2] = SOD Assay Kit-WST, SOD(-like) activity; type: biochemical; conditions: WST-1 reduction
Text: For SOD activity, SOD enzyme from human erythrocytes (Sigma, catalog number 59636) and HEK-293 cell lysate (5×10^6/ml) were used as comparison. The SOD Assay Kit-WST from Dojindo was used to determine SOD activity. The assay utilizes WST-1 [2-(4-iodophenyl)-3-(4-nitrophenyl)-5-(2,4)-disulfophenyl-2H-tetrazolium, monosodium salt] that produces a water-soluble formazan dye upon reduction with the superoxide anion. The rate of the reduction of WST-1 with O2^− was linearly related to the xanthine oxidase (XO) activity, and this reduction was inhibited by SOD. Therefore, the IC50 (50% inhibition activity of SOD or SOD-like materials) can be determined by the colorimetric method. Refer to FIG. 6A. […] Refer to FIG. 6B. […] Refer to FIG. 6C.

Compound: O=C(CCCCCCC(=O)Nc1ccccc1)NO [SAHA, suberoylanilide hydroxamic acid]
ATXN3/Q75 aggregation as compared to untreated cells (ATXN3/Q75 aggregation): 85%

EC50 [1]: 26.7 µM
Compound: O=c1c(O)c(-c2ccc(O)cc2)oc2cc(O)cc(O)c12 [kaempferol, reference compound]

Compound: SOD enzyme from human erythrocytes: SOD enzyme from human erythrocytes (Sigma), used as comparison
IC50 (SOD activity) [2]: 0.38 U/ml
